Source: patent US9556160B2, “Guanidine compound” (Astellas Pharma Inc., priority 2011, dated 2017)

How the values were obtained:
[1] = biological target: human VAP-1 enzyme (SSAO) (Homo sapiens (Human), UniProt Q16853); assay: Inhibitory effect on human VAP-1 enzyme (SSAO) activity, radiochemistry-enzymatic assay with 14C-benzylamine; format: biochemical; settings: CHO-expressed human VAP-1, 14C-benzylamine 1×10^−5 mol/L
Procedure: (§1) After homogenizing CHO (Chinese Hamster Ovary) cells stably expressing a human VAP-1 enzyme (SSAO) in a 50 mM phosphate buffer containing 1% NP-40, an enzyme suspension was obtained by taking the supernatant obtained by centrifugation. The enzyme suspension was preincubated with the compound of the present invention in a 96-well microplate at room temperature for 30 minutes. Subsequently, the enzyme suspension was incubated with ^14C-benzylamine (a final concentration of 1×10^−5 mol/L) to a final volume of […] at 37° C. for 1 hour. The enzymatic reaction was stopped by the addition of 2 mol/L (50 pt) of citric acid.

rat VAP-1 enzyme (SSAO) = rat VAP-1 enzyme (SSAO) (Rattus norvegicus (Rat), UniProt O08590); assay: Inhibitory effect on rat VAP-1 enzyme (SSAO) activity, radiochemistry-enzymatic assay with 14C-benzylamine; format: biochemical; settings: CHO-expressed rat VAP-1, 14C-benzylamine 1×10^−5 mol/L
Procedure: as §1, with “rat” for “human”, “μL)” for “pt)”, “acid. The oxidation products were extracted directly in a 200 μL toluene scintillator, and the radioactivity was measured with a scintillation spectrometer.” for “acid.”

[2] = test system: VAP-1 enzyme (SSAO) activity in rat plasma; assay: Inhibitory effect on rat VAP-1 enzyme (SSAO) activity in rat plasma after oral administration; format: in vivo, Wistar male rats; settings: rat plasma VAP-1 activity, oral 0.3 mg/kg; for Inhibition Ratio (%) 1 h: 1 h after administration; for Inhibition Ratio (%) 3 h: 3 h after administration; for Inhibition Ratio (%) 6 h: 6 h after administration; for Inhibition Ratio (%) 24 h: 24 h after administration
Procedure: Eight-week to twelve-week Wistar male rats were fasted for 20 hours, and orally administered with a test drug ([…]). Heparin blood collection from the tail vein was performed immediately before the administration, and at 1 h, 3 h, 6 h, 12 h, or 24 h after the administration. The resulting blood was subjected to centrifugation at 14000 rpm for 5 minutes to separate plasma, and the VAP-1 enzyme activity in the resulting plasma was measured by a radio-enzyme assay method.
For the radio-enzyme assay method, ^14C-benzylamine which is a synthetic substrate (10 μM) was reacted with the resulting plasma at 37° C., and the resulting metabolite was extracted with a mixture of toluene/ethyl acetate. The radioactivity was measured and taken as a VAP-1 enzyme activity in the plasma. The effect of the test drug was calculated from the inhibitory ratio (%) of the VAP-1 activity after the administration of the test drug relative to the VAP-1 activity in the plasma immediately before the administration.

[3] = test system: albuminuria in STZ-treated rats; assay: Effect on albuminuria in rats with diabetes mellitus (STZ); format: in vivo, SD rats; settings: oral 0.3 mg/kg once daily, after 4 weeks; for amount of urinary albumin excretion: 24-hour urine
Procedure: Seven-to eight-week SD rats (having weights up to 200 to 250 g during fasting) were used and fasted for 20 hours, and then intraperitoneally administered with 60 mg/ml/kg of streptozotocin (STZ) prepared with a 2 mmol/l citric acid buffer (pH 4.5). At the same time, the control rats were injected with the same amount of a 2 mmol/l citric acid buffer (pH 4.5).
The test substance was given daily for 4 weeks after the treatment with STZ. After 4 weeks of the treatment with the test substance, 24-hour urine collection was performed using metabolic cages.

human VAP-1 enzyme (SSAO), sequence (Q16853 whole entry): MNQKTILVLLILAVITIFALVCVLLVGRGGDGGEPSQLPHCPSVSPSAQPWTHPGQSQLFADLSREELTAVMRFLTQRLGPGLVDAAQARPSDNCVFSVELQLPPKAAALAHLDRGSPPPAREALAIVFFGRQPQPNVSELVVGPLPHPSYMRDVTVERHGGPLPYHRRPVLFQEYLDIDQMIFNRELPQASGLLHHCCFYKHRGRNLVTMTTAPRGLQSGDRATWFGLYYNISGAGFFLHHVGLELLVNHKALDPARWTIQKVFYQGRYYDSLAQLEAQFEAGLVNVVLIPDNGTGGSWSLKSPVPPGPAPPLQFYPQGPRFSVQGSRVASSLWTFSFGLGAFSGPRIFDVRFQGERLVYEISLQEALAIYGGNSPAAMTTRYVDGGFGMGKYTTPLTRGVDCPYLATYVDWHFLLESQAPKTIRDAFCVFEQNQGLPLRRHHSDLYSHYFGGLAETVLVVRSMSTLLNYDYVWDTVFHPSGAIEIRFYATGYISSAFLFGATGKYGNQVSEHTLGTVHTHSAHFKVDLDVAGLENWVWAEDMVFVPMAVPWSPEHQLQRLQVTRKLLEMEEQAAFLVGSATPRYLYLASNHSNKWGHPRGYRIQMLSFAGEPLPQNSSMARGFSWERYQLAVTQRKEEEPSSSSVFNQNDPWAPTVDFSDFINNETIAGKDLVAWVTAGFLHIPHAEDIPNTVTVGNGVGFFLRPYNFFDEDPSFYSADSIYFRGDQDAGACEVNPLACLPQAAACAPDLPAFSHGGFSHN
rat VAP-1 enzyme (SSAO), sequence (O08590 whole entry): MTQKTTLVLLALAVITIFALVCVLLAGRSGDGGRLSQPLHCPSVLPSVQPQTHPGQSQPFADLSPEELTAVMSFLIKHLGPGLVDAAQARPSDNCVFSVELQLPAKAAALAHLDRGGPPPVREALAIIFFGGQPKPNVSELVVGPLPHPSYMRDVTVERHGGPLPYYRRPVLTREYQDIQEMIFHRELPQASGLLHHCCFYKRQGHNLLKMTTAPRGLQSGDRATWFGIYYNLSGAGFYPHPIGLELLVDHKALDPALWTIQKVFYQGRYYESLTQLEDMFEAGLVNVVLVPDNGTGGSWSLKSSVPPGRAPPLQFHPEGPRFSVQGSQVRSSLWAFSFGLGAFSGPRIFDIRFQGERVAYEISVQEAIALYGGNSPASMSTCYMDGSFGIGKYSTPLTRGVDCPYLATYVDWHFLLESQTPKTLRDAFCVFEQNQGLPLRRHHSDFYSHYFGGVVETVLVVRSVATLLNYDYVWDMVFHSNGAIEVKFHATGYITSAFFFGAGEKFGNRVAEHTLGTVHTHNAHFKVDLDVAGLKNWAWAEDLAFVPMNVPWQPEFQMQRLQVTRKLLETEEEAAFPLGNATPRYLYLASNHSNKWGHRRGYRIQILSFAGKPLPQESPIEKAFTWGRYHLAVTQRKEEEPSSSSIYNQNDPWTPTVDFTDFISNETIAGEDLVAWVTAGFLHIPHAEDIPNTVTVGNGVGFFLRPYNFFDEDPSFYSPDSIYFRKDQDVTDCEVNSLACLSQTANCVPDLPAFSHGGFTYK

| SMILES | IC50 [1] [nM] | IC50 (rat VAP-1 enzyme (SSAO)) [nM] | Inhibition Ratio (%) 1 h [2] [%] | Inhibition Ratio (%) 3 h [2] [%] | Inhibition Ratio (%) 6 h [2] [%] | Inhibition Ratio (%) 24 h [2] [%] | urinary albumin excretion relative to that of the control group [3] [times] | amount of urinary albumin excretion [3] [mg/gCr] |
| --- | --- | --- | --- | --- | --- | --- | --- | --- |
| CC(=O)N1CCC(COc2ncc(-c3cccc(COC(=O)NC(=N)N)c3F)cn2)CC1 [Example 11] | 5.2 | 2.2 | 64 | 70 | 63 | 12 | 1.5 | 103 |
| Cn1cc(OC2CN(c3cccc(COC(=O)NC(=N)N)c3F)C2)ccc1=O [Example 557] | 11 | 1.6 | 53 | 71 | 56 | 22 | 2.3 | 105 |
| N=C(N)NC(=O)OCc1cccc(N2CC(C3CCN(C(=O)C4CC4)CC3)C2)c1F [Example 561] | 9.6 | 1.6 | 91 | 92 | 85 | 64 | – | – |
| COCC(=O)N1CCC(C2CN(c3cccc(COC(=O)NC(=N)N)c3F)C2)CC1 [Example 562] | 14 | 1.4 | 79 | 81 | 78 | 37 | – | – |
| COCCC(=O)N1CCC(C2CN(c3cccc(COC(=O)NC(=N)N)c3F)C2)CC1 [Example 563] | 20 | 1.5 | 69 | 77 | 70 | 43 | – | – |
| CS(=O)(=O)N1CCC(C2CN(c3cccc(COC(=O)NC(=N)N)c3F)C2)CC1 [Example 564] | 19 | 1.5 | 89 | 90 | 85 | 59 | – | – |
| COCCOc1cc(N2CCN(c3cccc(COC(=O)NC(=N)N)c3F)CC2)ccn1 [Example 565] | 19 | 2.5 | 77 | 83 | 71 | 47 | – | – |
| COCc1cc(N2CCN(c3cccc(COC(=O)NC(=N)N)c3F)CC2)ccn1 [Example 566] | 6.3 | 1.2 | 75 | 74 | 70 | 38 | – | – |
